Our source for the CC50, EC50 and IC50 values is ChEMBL document CHEMBL3739372 (Bioorg Med Chem, 2015).

The nature of data set [1]: Cytotoxicity against MDCK cells after 72 hrs by XTT assay. The format is cell-based, Canis lupus familiaris. Conditions: dog. (Tetrazolium assays rely on reduction of a dye to a coloured formazan, in cell work by metabolically active cells.)
A further data set has as its system Influenza A virus. Nature of the data set: Antiviral activity against Influenza A virus infected in MDCK cells after 72 hrs by yield reduction assay. The format is functional, organism-based.
Data set [2] can be described thus: Inhibition of Influenza B virus wild type neuraminidase.

The CC50 is the concentration that lowers cell viability or growth by half. High values mean lower toxicity to the cells, low ones greater toxicity to the cells. Broadly, the EC50 is the midpoint of the concentration-response curve. High values mean weaker potency, low ones greater potency. By IC50 is commonly meant the midpoint of a concentration-inhibition curve. Read a low IC50 as greater potency.

Regarding `CCOC(=O)C1=C[C@@H](OC(CC)CC)[C@H](NC(C)=O)[C@@H](N)C1` [OSELTAMIVIR], the CC50 at 72 h in data set [1] turned out to be 321 µM. In the data set on Influenza A virus, this compound yielded a half-maximal effective concentration (EC50) of 0.03 µM. The midpoint of inhibition in data set [2], the IC50, lay at 16 µM.

`CCOC(=O)c1cn(CC)c2ccc(-n3cc(C4=CCCCC4)nn3)cc2c1=O` yielded a CC50 at 72 h in data set [1] of 566 µM. The compound also returned a concentration for a half-maximal effect (EC50) in the data set with Influenza A virus of 0.2 µM. In data set [2], this compound returned an IC50 of 22 µM.
